From the NIST ThermoML archive (doi:10.1021/acs.jced.6b00813)
± gives the expanded uncertainty stated by the source. Each block holds one molecule with its values, some of them ahead of it.

Legend:
[1] = wn = mass fraction of the nth substance listed; conditions: 101.3 kPa, Liquid, Pycnometric method
[2] = Crystal; Titration method

mass density ([1]; 273.15 K, w1 = 0.373): 1427 ± 2 kg/m3
Compound: [Ca+2].[Cl-].[Cl-] [calcium chloride] + O

Compound: O=[PH2][O-].O=[PH2][O-].[Ca+2] [calcium hypophosphite] + O
mass density ([1]; 268.75 K, w1 = 0.1397): 1133 ± 2 kg/m3
mass density ([1]; 270.15 K, w1 = 0.0909): 1089 ± 2 kg/m3
mass density ([1]; 271.4 K, w1 = 0.0476): 1047 ± 2 kg/m3
mass density ([1]; 272.15 K, w1 = 0.0244): 1024 ± 2 kg/m3
mass density ([1]; 273.15 K, w1 = 0.1381): 1132 ± 2 kg/m3
mass density ([1]; 283.15 K, w1 = 0.1362): 1131 ± 2 kg/m3
mass density ([1]; 293.15 K, w1 = 0.1341): 1128 ± 2 kg/m3
mass density ([1]; 303.15 K, w1 = 0.1322): 1125 ± 2 kg/m3
mass density ([1]; 313.15 K, w1 = 0.1304): 1121 ± 2 kg/m3
mass density ([1]; 323.15 K, w1 = 0.1293): 1117 ± 2 kg/m3
mass density ([1]; 333.15 K, w1 = 0.1292): 1114 ± 2 kg/m3
mass density ([1]; 343.15 K, w1 = 0.1292): 1111 ± 3 kg/m3
mass density ([1]; 353.15 K, w1 = 0.1295): 1107 ± 3 kg/m3
mass density ([1]; 363.15 K, w1 = 0.1297): 1103 ± 2 kg/m3
mass density ([1]; 373.15 K, w1 = 0.1302): 1103 ± 2 kg/m3
mass density ([1]; 376.95 K, w1 = 0.1302): 1103 ± 2 kg/m3

Compound: O=[PH2][O-].[Na+] [sodium phosphinate] + O
mass density ([1]; 273.15 K, w1 = 0.4776): 1381 ± 2 kg/m3

Compound: O [water]
Normal melting temperature [2]: 0.00 ± 0.77 °C

Compound: O [water] + O=[PH2][O-].O=[PH2][O-].[Ca+2]
mass density ([1]; 273.15 K, w2 = 0): 999 ± 4 kg/m3
